Assay in all cases: Phospho-ERK inhibition, AlphaLISA SureFire Ultra p-ERK 1/2
Common to all, as to assay type: cell-based, human
In general terms: Alpha assays give light when donor and acceptor beads are brought close together.

One assay concerns NCI-H2122 pERK. As to conditions: Table D-2; for NCI-H2122 pERK, value in parentheses, % inhibition: % Ymin of pERK IC50 curve. The method in brief: (§1)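 IC50 derived by four-parameter fitting of % inhibition, with DMSO as 0% and 1 μM trametinib subtracted as background. Signal is AlphaLISA p-ERK1/2 (Thr202/Tyr204) in lysates of overnight-seeded cells (RPMI-1640, 5% FBS) treated 1 h with ten concentrations from 30 or 10 μM to 0.33 nM, 0.5% DMSO.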

In the next assay the test system is SW620 pERK. Conditions: Table D-2; for pERK IC50 curve bottom (Ymin), %: % Ymin of pERK IC50 curve. The procedure, abridged:
as §1

A further assay relates to NCI-H358 pERK. As to conditions: Table D-2; for NCI-H358 pERK, value in parentheses, % inhibition: % Ymin of pERK IC50 curve. The procedure, abridged: as §1
A further assay deals with Mewo pERK. Conditions: Table D-2; for Mewo pERK, value in parentheses, % inhibition: % Ymin of pERK IC50 curve. The method in brief: as §1
Another assay deals with NCIH2087 pERK. Conditions: Table D-2. The procedure, abridged: as §1
Another assay concerns SK-MEL30 pERK. As to conditions: Table D-1; for SK-MEL30 pERK, value in parentheses, % inhibition: % Ymin of pERK IC50 curve. The procedure, abridged:
as §1

In another assay the test system is IPC298 pERK. As to conditions: Table D-1; for IPC298 pERK, value in parentheses, % inhibition: % Ymin of pERK IC50 curve. The procedure, abridged: as §1
The subject of a further assay is HepG2 pERK. Conditions: Table D-1; for HepG2 pERK, value in parentheses, % inhibition: % Ymin of pERK IC50 curve. The method in brief: as §1
For another assay, the system named is Calu6 pERK. Conditions: Table D-2; for Calu6 pERK, value in parentheses, % inhibition: % Ymin of pERK IC50 curve. The procedure, abridged:
as §1

A further assay has as its system NCIH1755 pERK. As to conditions: Table D-2; for Ymin of pERK inhibition curve (%): % Ymin of pERK IC50 curve. The procedure, abridged:
as §1

In a further assay the test system is Lovo pERK. Conditions: Table D-2; for pERK curve Ymin (%): % Ymin of pERK IC50 curve. The procedure, abridged: as §1

As a reminder, the IC50 is the point on the concentration scale where inhibition reaches its midpoint.

With `Cc1ccc2c(Nc3cccc(Cl)c3F)nccc2c1NC(=O)c1csc2c(N)ncnc12` [Belvarafenib, reference compound], the IC50 was 30 to 300 nM in the assay with NCI-H2122 pERK (Homo sapiens, NCI-H2122); 30 to 300 nM with SW620 pERK (Homo sapiens, SW-620); 30 to 300 nM with NCI-H358 pERK (Homo sapiens, NCI-H358); 30 to 300 nM with Mewo pERK (Homo sapiens, MeWo); less than 30 nM with NCIH2087 pERK (Homo sapiens, NCI-H2087); less than 30 nM in the assay with SK-MEL30 pERK (Homo sapiens, SK-MEL-30). Besides, the IC50 in the assay on IPC298 pERK (Homo sapiens, IPC-298) was 30 to 300 nM; in the assay with HepG2 pERK (Homo sapiens, HepG2) it was 30 to 300 nM; in the assay with Calu6 pERK (Homo sapiens, Calu-6), 30 to 300 nM; in the assay on NCIH1755 pERK (Homo sapiens, NCI-H1755), 30 to 300 nM; with Lovo pERK (Homo sapiens, LoVo), less than 30 nM. In addition, the “NCI-H2122 pERK, value in parentheses, % inhibition” value (from here on “NCI-H2122 pERK … % inhibition”) in the assay with NCI-H2122 pERK is “(−9) %”. Besides, the “NCI-H358 pERK, value in parentheses, % inhibition” value (“NCI-H358 pERK … % inhibition” below) in the assay with NCI-H358 pERK is “(−122) %”. In addition, the “Mewo pERK, value in parentheses, % inhibition” value (from here on “Mewo pERK, value … % inhibition”) with Mewo pERK is given as “(−116) %”. The “SK-MEL30 pERK, value in parentheses, % inhibition” value (from here on “SK-MEL30 pERK … % inhibition”) in the assay on SK-MEL30 pERK is “(−45) %”. Moreover, the “IPC298 pERK, value in parentheses, % inhibition” value (shortened to “IPC298 pERK … % inhibition”) in the assay on IPC298 pERK was “(−63) %”. For the same compound, in the assay on HepG2 pERK, the “HepG2 pERK, value in parentheses, % inhibition” value (from here on “HepG2 pERK, value … % inhibition”) is “(−36) %”. In addition, the “Calu6 pERK, value in parentheses, % inhibition” value (shortened to “Calu6 pERK, value … % inhibition”) with Calu6 pERK was “(−39) %”. Also, the “Ymin of pERK inhibition curve (%)” value in the assay on NCIH1755 pERK is reported as “(−79) %”. In the assay on Lovo pERK, the “pERK curve Ymin (%)” value was “(−12) %”.
Regarding `Cc1c(F)cccc1S(=O)(=O)Nc1ccc(F)c(Nc2ncnc3cnc(-n4cc(C(=O)N(C)Cc5ccncc5)c5ccccc54)nc23)c1F` [Example 98], in the assay on NCI-H2122 pERK, the half-maximal inhibitory concentration (IC50) lay within 30 to 300 nM and the “NCI-H2122 pERK … % inhibition” value is “(26) %”. Also, in the assay with SW620 pERK, the IC50 is 30 to 300 nM and the “pERK IC50 curve bottom (Ymin), %” value is reported as “(36) %”. In addition, in the assay with NCI-H358 pERK, the IC50 lay within 30 to 300 nM and the “NCI-H358 pERK … % inhibition” value was “(20) %”. In the assay with Mewo pERK, the half-inhibitory concentration (IC50) was 30 to 300 nM and the “Mewo pERK, value … % inhibition” value is “(9) %”. In the assay with NCIH2087 pERK, the IC50 is less than 30 nM and the “Ymin of pERK IC50 curve (%)” value is given as “(6) %”. Besides, in the assay with SK-MEL30 pERK, the IC50 was less than 30 nM and the “SK-MEL30 pERK … % inhibition” value is reported as “(10) %”. In addition, in the assay on IPC298 pERK, the half-inhibitory concentration (IC50) fell in the range of 30 to 300 nM and the “IPC298 pERK … % inhibition” value is reported as “(13) %”. Also, in the assay on HepG2 pERK, the IC50 is less than 30 nM and the “HepG2 pERK, value … % inhibition” value is recorded as “(27) %”. Also, in the assay on Calu6 pERK, the IC50 fell in the range of 30 to 300 nM and the “Calu6 pERK, value … % inhibition” value is given as “(5) %”. In the assay on NCIH1755 pERK, the IC50 is less than 30 nM and the “Ymin of pERK inhibition curve (%)” value is “(9) %”. In the assay with Lovo pERK, the IC50 was in the range of 30 to 300 nM and the “pERK curve Ymin (%)” value is reported as “(27) %”.
Turning to `COc1ccc(S(=O)(=O)Nc2ccc(F)c(Nc3ncnc4cnc(-n5cnc6c(N)cccc65)nc34)c2F)c(C)c1Cl` [Example 112], in the assay with NCI-H2122 pERK, the IC50 lay in the range of 30 to 300 nM and the “NCI-H2122 pERK … % inhibition” value is given as “(−15) %”. Further, in the assay on SW620 pERK, the IC50 fell in the range of 30 to 300 nM and the “pERK IC50 curve bottom (Ymin), %” value was “(11) %”. In addition, in the assay on NCI-H358 pERK, the IC50 was in the range of 30 to 300 nM and the “NCI-H358 pERK … % inhibition” value was “(−8) %”. In addition, in the assay on Mewo pERK, the IC50 was less than 30 nM and the “Mewo pERK, value … % inhibition” value is recorded as “(12) %”. For the same compound, in the assay on NCIH2087 pERK, the IC50 is less than 30 nM and the “Ymin of pERK IC50 curve (%)” value was “(−7) %”. Moreover, in the assay with SK-MEL30 pERK, the IC50 was less than 30 nM and the “SK-MEL30 pERK … % inhibition” value is recorded as “(6) %”. For the same compound, in the assay with IPC298 pERK, the half-inhibitory concentration (IC50) lay within 30 to 300 nM and the “IPC298 pERK … % inhibition” value is “(1) %”. Also, in the assay with HepG2 pERK, the concentration for half-maximal inhibition (IC50) lay in the range of 30 to 300 nM and the “HepG2 pERK, value … % inhibition” value was “(−10) %”. In the assay with Calu6 pERK, the IC50 lay within 30 to 300 nM and the “Calu6 pERK, value … % inhibition” value is reported as “(1) %”. In addition, in the assay on NCIH1755 pERK, the IC50 is less than 30 nM and the “Ymin of pERK inhibition curve (%)” value is “(12) %”. In the assay on Lovo pERK, the half-maximal inhibitory concentration (IC50) was in the range of 30 to 300 nM and the “pERK curve Ymin (%)” value is on record as “(−1) %”.
Take `Cc1c(F)cccc1S(=O)(=O)Nc1ccc(F)c(Nc2ncnc3cnc(-n4cnc5c(-c6cccnc6)cccc54)nc23)c1F` [Example 114]: the IC50 in the assay on NCI-H2122 pERK (Homo sapiens, NCI-H2122) was 30 to 300 nM; with SW620 pERK (Homo sapiens, SW-620), greater than 300 nM; in the assay with NCI-H358 pERK (Homo sapiens, NCI-H358), greater than 300 nM; in the assay on Mewo pERK (Homo sapiens, MeWo), 30 to 300 nM; in the assay with NCIH2087 pERK (Homo sapiens, NCI-H2087), 30 to 300 nM; in the assay with SK-MEL30 pERK (Homo sapiens, SK-MEL-30) it was 30 to 300 nM. Besides, the IC50 was 30 to 300 nM with IPC298 pERK (Homo sapiens, IPC-298); 30 to 300 nM in the assay with HepG2 pERK (Homo sapiens, HepG2); 30 to 300 nM in the assay on Calu6 pERK (Homo sapiens, Calu-6); 30 to 300 nM with NCIH1755 pERK (Homo sapiens, NCI-H1755); less than 30 nM with Lovo pERK (Homo sapiens, LoVo). Besides, in the assay with NCI-H2122 pERK, the “NCI-H2122 pERK … % inhibition” value is “(0) %”. Also, in the assay with SW620 pERK, the “pERK IC50 curve bottom (Ymin), %” value was “(−13) %”. Further, the “NCI-H358 pERK … % inhibition” value in the assay on NCI-H358 pERK is reported as “(−4) %”. Moreover, in the assay with Mewo pERK, the “Mewo pERK, value … % inhibition” value is recorded as “(−12) %”. In the assay with NCIH2087 pERK, the “Ymin of pERK IC50 curve (%)” value is “(2) %”. Further, the “SK-MEL30 pERK … % inhibition” value in the assay on SK-MEL30 pERK is reported as “(−9) %”. In addition, the “IPC298 pERK … % inhibition” value in the assay on IPC298 pERK is given as “(1) %”. Further, in the assay on HepG2 pERK, the “HepG2 pERK, value … % inhibition” value was “(14) %”. The “Calu6 pERK, value … % inhibition” value with Calu6 pERK was “(8) %”. Besides, in the assay on NCIH1755 pERK, the “Ymin of pERK inhibition curve (%)” value is recorded as “(−5) %”. Besides, the “pERK curve Ymin (%)” value with Lovo pERK is “(4) %”.
`O=S(=O)(Nc1ccc(F)c(Nc2ncnc3cnc(-n4cnc5c(N6CCC7(CCCO7)CC6)cccc54)nc23)c1F)c1cccc(Cl)c1Cl` [Example 129]: in the assay on NCI-H2122 pERK, the concentration for half-maximal inhibition (IC50) was greater than 300 nM and the “NCI-H2122 pERK … % inhibition” value is “(−14) %”. Besides, in the assay on SW620 pERK, the IC50 was greater than 300 nM and the “pERK IC50 curve bottom (Ymin), %” value was “(−7) %”. In the assay with NCI-H358 pERK, the 50% inhibitory concentration (IC50) fell in the range of 30 to 300 nM and the “NCI-H358 pERK … % inhibition” value is on record as “(−3) %”. In addition, in the assay with Mewo pERK, the half-inhibitory concentration (IC50) lay in the range of 30 to 300 nM and the “Mewo pERK, value … % inhibition” value is “(−5) %”. In the assay on NCIH2087 pERK, the IC50 is less than 30 nM and the “Ymin of pERK IC50 curve (%)” value was “(3) %”. In the assay on SK-MEL30 pERK, the IC50 was less than 30 nM and the “SK-MEL30 pERK … % inhibition” value was “(16) %”. Further, in the assay on IPC298 pERK, the IC50 was 30 to 300 nM and the “IPC298 pERK … % inhibition” value is “(17) %”. In the assay with HepG2 pERK, the IC50 was 30 to 300 nM and the “HepG2 pERK, value … % inhibition” value is on record as “(−2) %”. For the same compound, in the assay with Calu6 pERK, the IC50 lay within 30 to 300 nM and the “Calu6 pERK, value … % inhibition” value is given as “(−1) %”. In the assay with NCIH1755 pERK, the concentration for half-maximal inhibition (IC50) is less than 30 nM and the “Ymin of pERK inhibition curve (%)” value is “(−2) %”. Besides, in the assay on Lovo pERK, the IC50 lay in the range of 30 to 300 nM and the “pERK curve Ymin (%)” value is “(−2) %”.
